“And” between values parts separate entries of the source, which are not always exact repeats. Equal values may be shown once.
Columns and labels:
[1] = PK in systemic plasma of GK rats after repeated oral administration (day 35); assay type: in vivo, rat; details: GK rats, systemic plasma; for Cmax / half-life / Tmax / AUC: male, GK, rat, po, mean ± SE, n = 8; for Cmax / half-life / Tmax: plasma; for half-life: read-out: T1/2 (converted); for Tmax: read-out: Tmax; for AUC: read-out: AUC
Protocol: Analyses were performed on a Shimadzu LCMS-8030 triple quadrupole system (Shimadzu Corp., Japan) equipped with an electrospray ionization source. Data processing was performed using Shimadzu LC–MS LabSolutions (version 5.42 SP4, Shimadzu, Japan). Chromatographic separation was carried out on a Waters CORTECS C18+ column (100 mm × 2.1 mm, 2.7 μm, Ireland) with a security guard C18+ column (5 mm × 2.1 mm, 2.7 μm, Ireland). […] The gradient elution was 85% B from 0 to 2.5 min, 85% B–83% B from 2.5 to 3.0 min, 83% B from 3.0 to 6.0 min, 83% B–40% B from 6.0 to 6.5 min, 40% B from 6.5 to 7.0 min, 40% B–85% B from 7.0 to 7.2 min, and 85% B from 7.2 to 12 min. […] The optimized precursor-to-product ion pairs (collision energy) were in the positive mode as follows: m/z 579.20–255.15 (28 V) for TB-2 (at 4.1 min) and timosaponin A3 (at 6.1 min) and 271.50–154.70 (25 V) for tolbutamide (IS, at 5.8 min). […] If the concentrations of the compounds were over the linear range, the relevant samples were diluted with blank matrix by a factor of 10. […] Four-week-old male GK rats were fed a high-fat diet, and age-matched non-diabetic Wistar rats were fed standard chow as the control group. Under these dietary conditions, blood glucose was estimated each week for 7 weeks in 12-h fasted rats using a portable glucometer (One Touch Sure Step Meter, Johnson & Johnson, United States) by drawing the blood from the tail vein. GK rats with fasting blood glucose levels (FBG) above 16.7 mM were considered as diabetic rats, and only uniformly diabetic rats were used in this study. […] All the drugs were suspended in 0.5% carboxymethylcellulose sodium (CMC-Na) solution for oral gavage (10 ml/kg) once per day (at 9:00) for 6 weeks. Simultaneously, the Wistar and vehicle groups received vehicle over the treatment period. Food consumption and body weight were measured every week throughout the experimental periods. Non-fasting blood glucose (NFBG) levels were determined by collecting blood samples from the tail vein (at 9:00), and FBG levels were determined after a 6-h fast (at 15:00) on days 0, 7, 14, 21, and 42. On day 28, an oral glucose tolerance test (OGTT) was performed after an overnight fast. […] On day 42, the rats were anesthetized with urethane (1.4 g/kg, dissolved in saline) after an overnight fast and were sacrificed to collect the liver, kidney, heart, and spleen. The organs were weighed after washing with saline and drying to calculate the organ coefficient, namely, the ratio between the weight of organs and the body in each rat. The liver samples were diluted with 3 volumes (0.5 g/1.5 ml) of saline and homogenized. The liver homogenates and plasma samples (100 μl) were precipitated with three volumes of acetonitrile (containing 10 μg/ml tolbutamide). […] Then, 100 μl of the original mobile phase was added, and the samples were vortexed for 5 min and centrifuged at 13,000 rpm at 4°C for 10 min. Finally, the supernatant was used for HPLC–QQQ–MS/MS analysis. A non-compartmental analysis was performed using WinNonlin software (Pharsight 6.2, Raleigh, NC, United States) to calculate the PK parameters. The significance of PK parameters in normal rats, generated by the sparse method in WinNonlin, was assessed with Welch’s unequal variances t-test. The significance of the other results was assessed using two-tailed Student’s t-tests. Statistical significance was defined as P < 0.05.

[2] = Liver distribution in Wistar rats; details: liver; for AUC ± SE / Cmax / half-life / Tmax: n = 5; for Cmax / half-life / Tmax: male, Wistar, rat, po; for Cmax: Cmax ± SE; for half-life: T1/2, Wistar rats
[3] = PK in systemic plasma of Wistar rats (after hepatic clearance) and liver extraction ratio; details: for ERliver (liver extraction ratio): (AUCpor−AUCsys)/AUCpor; for Tmax / AUC / Cmax / half-life: male, Wistar, rat, po; for Tmax: n = 5
[4] = PK in portal vein plasma of Wistar rats (before hepatic clearance); details: for AUC / Cmax / Tmax / half-life: male, Wistar, rat, po
[5] = 33.3 mg/kg, day 35, oral BBR+TB-2 (66.7+33.3 mg/kg)
[6] = 66.7 mg/kg, day 35, oral BBR 66.7 mg/kg alone
[7] = Wistar rats, TB-2+BBR treatments
[8] = 33.3 mg/kg, Wistar rats, single oral BBR+TB-2 (66.7+33.3 mg/kg)
[9] = 66.7 mg/kg, Wistar rats, single oral BBR 66.7 mg/kg alone

COc1ccc2cc3[n+](cc2c1O)CCc1cc2c(cc1-3)OCO2 [M1, Berberrubine]
levels of M1 as share of the parent drug ([1]; BBR treatments): 75%
levels of M1 as share of the parent drug ([1]; TB-2+BBR treatments): 61%
increase in AUC on combination vs single treatment ([1]; day 35): didn’t significantly increase
increase in Cmax on combination vs single treatment ([1]; day 35): didn’t significantly increase
Cmax [1, 5]: 6.6 ± 2 ng/mL
half-life [1, 5]: 23.9 ± 7.4 h
Tmax [1, 5]: 9.4 ± 1.2 h
Cmax [1, 6]: 4.3 ± 1.7 ng/mL
half-life [1, 6]: 100 ± 92.2 h
Tmax [1, 6]: 10.4 ± 3.1 h
AUC [1, 5]: 94.9 ± 26.4 ng·h/mL
AUC [1, 6]: 56.3 ± 18.5 ng·h/mL
increase in AUC on co-administration vs single treatment ([2]; Wistar rats): 282%
increase in Cmax on co-administration vs single treatment ([2]; Wistar rats): 109%
exposure (AUC) of metabolite as share of the exposure of BBR [2, 7]: 77% and 77.5%
AUC ± SE ([2]; Wistar rats, single oral BBR 66.7 mg/kg alone): 932.5 ± 155.4 h ∗ ng/g
AUC ± SE ([2]; Wistar rats, single oral BBR+TB-2 (66.7+33.3 mg/kg)): 3565.3 ± 256.7^∗∗∗ h ∗ ng/g
exposure (AUC) of metabolite as share of the exposure of BBR ([2]; Wistar rats, single treatment (On TB-2 treatments)): 29% and 28.6%
Cmax [2, 8]: 238 ± 39.5 ng/g
half-life ([2]; 33.3 mg/kg, single oral BBR+TB-2 (66.7+33.3 mg/kg)): 4.2 h
Tmax [2, 8]: 6 h
Cmax [2, 9]: 114 ± 10.6 ng/g
half-life ([2]; 66.7 mg/kg, single oral BBR 66.7 mg/kg alone): 4.6 h
Tmax [2, 9]: 4 h
ERliver (liver extraction ratio) ([3]; Wistar rats, oral BBR 66.7 mg/kg alone): 81.9%
ERliver (liver extraction ratio) ([3]; Wistar rats, oral BBR+TB-2 (100 mg/kg)): 81.3%
AUC in portal vein plasma, fold higher than in systemic plasma ([3]; Wistar rats, BBR treatments): approximately fivefold
AUC in portal vein plasma, fold higher than in systemic plasma [3, 7]: approximately fivefold
increase in AUC on co-administration vs single treatment ([3]; Wistar rats, systemic plasma): 95%
AUC ratio between M1 and BBR ([3]; Wistar rats, systemic plasma, BBR treatments): 40.2%
AUC ratio between M1 and BBR ([3]; Wistar rats, systemic plasma, TB-2+BBR treatments): 46.8%
Tmax ([3]; plasma, 66.7 mg/kg, Wistar rats, systemic plasma, single oral BBR 66.7 mg/kg alone): 6 h
AUC ([3]; systemic plasma, 66.7 mg/kg): 10.1 ± 0.6 ng·h/mL
Cmax ([3]; systemic plasma, 66.7 mg/kg): 1 ± 0.2 ng/mL
half-life ([3]; systemic plasma, 66.7 mg/kg): 5.8 h
AUC ([3]; systemic plasma, 100 mg/kg): 19.7 ± 2.9 ng·h/mL
Cmax ([3]; systemic plasma, 100 mg/kg): 2 ± 0.2 ng/mL
half-life ([3]; systemic plasma, 100 mg/kg): 1.9 h
Tmax ([3]; systemic plasma, 100 mg/kg, Wistar rats, systemic plasma, single oral BBR+TB-2 (100 mg/kg)): 9 h
increase in AUC on co-administration vs single treatment ([4]; Wistar rats): 89%
increase in Cmax on co-administration vs single treatment ([4]; Wistar rats): 105%
AUC ratio between M1 and BBR ([4]; Wistar rats, BBR treatments): 28.1%
AUC ratio between M1 and BBR [4, 7]: 24.9%
AUC ([4]; 66.7 mg/kg): 55.7 ± 3.5 ng·h/mL
Cmax ([4]; 66.7 mg/kg): 3.5 ± 1 ng/mL
Tmax ([4]; 66.7 mg/kg): 6 h
half-life ([4]; 66.7 mg/kg): 9.7 h
AUC ([4]; 100 mg/kg): 106 ± 6.2 ng·h/mL
Cmax ([4]; 100 mg/kg): 7.2 ± 1.5 ng/mL
Tmax ([4]; 100 mg/kg): 9 h
half-life ([4]; 100 mg/kg): 7 h
